In ChEMBL document CHEMBL1131477, “Synthesis and biological activity of a novel series of nonsteroidal, peripherally selective androgen receptor antagonists derived from 1,2-dihydropyridono[5,6-g]quinolines” (J Med Chem, 1998):

Columns and labels:
[1] = molecular target: T1, Progesterone receptor (Homo sapiens) (UniProt P06401); experiment: Efficacy as a function of maximal inhibition against human progesterone receptor B (hPR-B).
T1 sequence (whole entry): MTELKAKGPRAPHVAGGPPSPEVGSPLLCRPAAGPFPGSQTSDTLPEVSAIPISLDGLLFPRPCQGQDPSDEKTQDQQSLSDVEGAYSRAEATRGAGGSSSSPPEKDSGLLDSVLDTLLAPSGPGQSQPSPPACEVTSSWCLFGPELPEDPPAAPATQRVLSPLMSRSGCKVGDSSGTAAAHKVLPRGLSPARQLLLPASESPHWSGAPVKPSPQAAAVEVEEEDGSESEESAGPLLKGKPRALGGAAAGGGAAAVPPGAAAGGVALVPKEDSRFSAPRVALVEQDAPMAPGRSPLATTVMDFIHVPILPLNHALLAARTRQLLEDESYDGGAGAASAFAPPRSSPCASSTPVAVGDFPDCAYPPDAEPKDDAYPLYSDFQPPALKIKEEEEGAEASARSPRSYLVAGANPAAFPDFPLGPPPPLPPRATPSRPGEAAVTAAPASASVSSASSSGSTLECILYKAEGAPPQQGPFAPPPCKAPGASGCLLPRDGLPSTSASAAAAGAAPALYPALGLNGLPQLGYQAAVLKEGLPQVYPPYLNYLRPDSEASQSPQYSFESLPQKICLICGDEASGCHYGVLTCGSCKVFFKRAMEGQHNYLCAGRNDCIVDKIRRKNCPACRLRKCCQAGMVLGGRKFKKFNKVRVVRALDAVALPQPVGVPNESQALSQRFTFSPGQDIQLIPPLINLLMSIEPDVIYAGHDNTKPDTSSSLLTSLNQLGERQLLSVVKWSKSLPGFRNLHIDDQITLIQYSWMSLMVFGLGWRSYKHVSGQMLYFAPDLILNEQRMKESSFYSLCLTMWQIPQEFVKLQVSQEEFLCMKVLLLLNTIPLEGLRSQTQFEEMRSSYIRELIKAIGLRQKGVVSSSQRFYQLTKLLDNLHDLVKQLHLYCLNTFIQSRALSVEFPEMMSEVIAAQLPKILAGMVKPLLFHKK

Androgen receptor [2] = molecular target: T2, Androgen receptor (Homo sapiens, UniProt P10275); experiment: biochemical
T2 sequence (P10275 whole entry): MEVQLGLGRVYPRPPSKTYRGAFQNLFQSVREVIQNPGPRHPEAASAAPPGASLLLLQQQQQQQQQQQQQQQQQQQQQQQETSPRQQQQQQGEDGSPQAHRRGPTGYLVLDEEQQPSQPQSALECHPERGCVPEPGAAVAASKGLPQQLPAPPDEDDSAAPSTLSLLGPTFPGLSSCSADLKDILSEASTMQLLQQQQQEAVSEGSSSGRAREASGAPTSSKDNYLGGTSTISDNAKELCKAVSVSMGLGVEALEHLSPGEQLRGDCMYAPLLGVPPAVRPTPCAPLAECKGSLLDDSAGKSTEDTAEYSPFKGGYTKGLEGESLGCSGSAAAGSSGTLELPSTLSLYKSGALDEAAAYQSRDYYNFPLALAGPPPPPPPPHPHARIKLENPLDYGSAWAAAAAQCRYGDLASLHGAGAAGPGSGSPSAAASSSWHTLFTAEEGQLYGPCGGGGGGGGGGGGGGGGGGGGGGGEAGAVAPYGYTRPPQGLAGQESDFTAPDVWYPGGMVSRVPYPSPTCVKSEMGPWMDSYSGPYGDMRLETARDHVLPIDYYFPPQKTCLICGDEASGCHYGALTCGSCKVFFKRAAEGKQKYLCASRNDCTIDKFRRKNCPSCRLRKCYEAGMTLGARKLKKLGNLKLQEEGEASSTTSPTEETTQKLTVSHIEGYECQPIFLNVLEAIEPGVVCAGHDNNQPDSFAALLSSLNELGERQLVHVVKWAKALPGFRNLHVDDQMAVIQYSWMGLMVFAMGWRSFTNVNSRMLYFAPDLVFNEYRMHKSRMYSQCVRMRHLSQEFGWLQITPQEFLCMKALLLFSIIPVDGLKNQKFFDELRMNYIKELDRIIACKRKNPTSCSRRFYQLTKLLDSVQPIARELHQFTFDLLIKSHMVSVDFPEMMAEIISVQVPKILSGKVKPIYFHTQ
Description: Binding affinity for human androgen receptor in transiently-transfected COS-1 cells.

Progesterone receptor = molecular target: T3, Progesterone receptor (Homo sapiens, UniProt P06401); experiment: Antagonistic activity against human progesterone receptor B (hPR-B) in co-transfected CV-1 cells.; type: functional, cell-based
T3 sequence (P06401 whole entry): T1 sequence (whole entry)

Androgen receptor [3] = molecular target: T2, Androgen receptor
Description: Antagonistic activity against human androgen receptor (hAR) in co-transfected CV-1 cells.

| Structure (SMILES) | Efficacy [1] [%] | Ki (Androgen receptor [2]) [nM] | IC50 (Progesterone receptor) [nM] | IC50 (Androgen receptor [3]) [nM] |
| --- | --- | --- | --- | --- |
| CC1(C)CCc2cc3c(C(F)(F)F)cc(O)nc3cc2N1 | 80 | – | – | – |
| CC1CC(C)(C)Nc2cc3c(cc21)c(C(F)(F)F)cc(=O)n3C (stereo unspecified) | 98 | 46 | 585 | 73 |
| CC1=CC(C)(C)N(C)c2cc3c(cc21)c(C(F)(F)F)cc(=O)n3C | 91 | 39 | 136 | 46 |
| C[C@@H]1c2cc3c(C(F)(F)F)cc(O)nc3cc2NC(C)(C)[C@H]1C | 92 | – | 735 | – |
| CC1=CC(C)(C)N(C)c2cc3nc(O)cc(C(F)(F)F)c3cc21 | 55 | 695 | 1680 | 156 |
| CCCC1(C)CCc2cc3c(C(F)(F)F)cc(=O)[nH]c3cc2N1 (stereo unspecified) | – | 69 | 1140 | 42 |
| CC1=C(C)C(C)(C)Nc2cc3nc(O)cc(C(F)(F)F)c3cc21 | 65 | – | – | – |
| CC1(C)C=Cc2cc3c(C(F)(F)F)cc(O)nc3cc2N1 | 81 | 86 | 390 | 58 |
| Oc1cc(C(F)(F)F)c2cc3c(cc2n1)NC1(CCCCC1)CC3 | 94 | 9 | 1830 | 35 |
| CCC1(C)CCc2cc3c(C(F)(F)F)cc(=O)n(C)c3cc2N1 (stereo unspecified) | 73 | 69 | 3280 | 48 |
| CCC1Cc2cc3c(C(F)(F)F)cc(O)nc3cc2NC1(C)C (stereo unspecified) | 82 | – | – | – |
| CC1Cc2cc3c(C(F)(F)F)cc(=O)[nH]c3cc2NC1(C)C (stereo unspecified) | – | 73 | 348 | 30 |
| CC1(C)Cc2cc3c(C(F)(F)F)cc(O)nc3cc2NC1(C)C | 98 | – | – | – |
| CCC1(C)CCc2cc3c(C(F)(F)F)cc(=O)[nH]c3cc2N1 (stereo unspecified) | – | – | 543 | – |
| CN1c2cc3c(cc2CCC1(C)C)c(C(F)(F)F)cc(=O)n3C | 85 | 17 | 2200 | 19 |
| CCC1CC(C)(C)Nc2cc3nc(O)cc(C(F)(F)F)c3cc21 (stereo unspecified) | 74 | 54 | 274 | 27 |
| CC(O)(CS(=O)(=O)c1ccc(F)cc1)C(=O)Nc1ccc(C#N)c(C(F)(F)F)c1 (stereo unspecified) [BICALUTAMIDE] | 88 | – | 1820 | – |
| CC1=CC(C)(C)Nc2cc3nc(O)cc(C)c3cc21 | 83 | – | – | – |
| CC(C)C1CC(C)(C)Nc2cc3nc(O)cc(C(F)(F)F)c3cc21 (stereo unspecified) | 59 | 650 | 3160 | 159 |
| CCC1(C)CCc2cc3c(C(F)(F)F)cc(O)nc3cc2N1 (stereo unspecified) | 91 | – | – | – |
| Cn1c(=O)cc(C(F)(F)F)c2cc3c(cc21)NC(C)(C)CC3 | 74 | 56 | 1240 | 36 |
| CC1=CC(C)(C)Nc2cc3c(cc21)c(C(F)(F)F)cc(=O)n3C | 88 | 81 | 233 | 34 |
| CC12CCCN1c1cc3nc(O)cc(C(F)(F)F)c3cc1CC2 (stereo unspecified) | 11 | – | > 10000 | – |

| Structure (SMILES) | Efficacy [1] [%] | Ki (Androgen receptor [2]) [nM] | IC50 (Progesterone receptor) [nM] | IC50 (Androgen receptor [3]) [nM] |
| --- | --- | --- | --- | --- |
| CCn1c(=O)cc(C(F)(F)F)c2cc3c(cc21)NC(C)(C)C=C3C | 55 | 670 | 1760 | 692 |
| CC1=CC(C)(C)Nc2cc3[nH]c(=O)cc(C(F)(F)F)c3cc21 | – | – | 49 | – |
| CC1=CC(C)(C)Nc2cc3nc(O)cc(C(F)(F)F)c3cc21 | 62 | – | – | – |
| CCC1Cc2cc3c(C(F)(F)F)cc(=O)[nH]c3cc2NC1(C)C (stereo unspecified) | – | 251 | 2330 | 46 |
| C[C@H]1c2cc3c(C(F)(F)F)cc(O)nc3cc2NC(C)(C)[C@H]1C | 95 | – | 310 | – |
| CCCC1(C)CCc2cc3c(C(F)(F)F)cc(O)nc3cc2N1 (stereo unspecified) | 86 | – | – | – |
| Cc1c2c(cc3c(C(F)(F)F)cc(=O)n(C)c13)C(C)CC(C)(C)N2 (stereo unspecified) | 79 | 40 | 2930 | 31 |
| CC1=CC(C)(C)Nc2c1cc1c(C(F)(F)F)cc(O)nc1c2C | 88 | – | – | – |
| CCC1(C)CCc2cc3c(C(F)(F)F)cc(=O)n(C)c3cc2N1C (stereo unspecified) | 92 | 10 | 1100 | 24 |
| CC(C)(O)C(=O)Nc1ccc([N+](=O)[O-])c(C(F)(F)F)c1 | 90 | – | – | – |
| CC1CC(C)(C)Nc2cc3nc(O)cc(C(F)(F)F)c3cc21 (stereo unspecified) | 86 | – | 231 | – |
| CC1=C(C)C(C)(C)Nc2cc3[nH]c(=O)cc(C(F)(F)F)c3cc21 | – | 268 | 393 | 68 |
| CC1Cc2cc3c(C(F)(F)F)cc(O)nc3cc2NC1(C)C (stereo unspecified) | 89 | – | – | – |
| CC(=O)O[C@]1(C(C)=O)CC[C@H]2[C@@H]3C=C(Cl)C4=CC(=O)[C@@H]5C[C@@H]5[C@]4(C)[C@H]3CC[C@@]21C | 12 | – | – | – |
| CCC1(CC)CCc2cc3c(C(F)(F)F)cc(O)nc3cc2N1 | 81 | 102 | 2710 | 27 |
| CC1c2cc3c(C(F)(F)F)cc(O)nc3cc2NC(C)(C)C1(C)C (stereo unspecified) | 93 | 358 | 362 | 57 |
| CC1(C)CCc2cc3c(C(F)(F)F)cc(=O)[nH]c3cc2N1 | – | – | 330 | – |
| Cn1c(=O)cc(C(F)(F)F)c2cc3c(cc21)N1CCCC1(C)CC3 (stereo unspecified) | 84 | – | 398 | – |
| Cc1c2c(cc3c(C(F)(F)F)cc(=O)[nH]c13)C(C)CC(C)(C)N2 (stereo unspecified) | – | 85 | 3730 | 22 |
| CC1=CC(C)(C)Nc2c1cc1c(C(F)(F)F)cc(=O)n(C)c1c2C | 68 | 874 | 4400 | – |
| CC1(C)Cc2cc3c(C(F)(F)F)cc(=O)[nH]c3cc2NC1(C)C | – | 189 | 876 | 83 |
| CC1=CC(C)(C)Nc2cc3[nH]c(=O)cc(C)c3cc21 | – | 62 | 109 | 36 |
| Cc1c2c(cc3c(C(F)(F)F)cc(O)nc13)C(C)CC(C)(C)N2 (stereo unspecified) | 74 | – | – | – |
